# “Also recorded” adds a separate entry of the source.
# Columns and labels:
# [1] = system: LPS (TLR4 agonist) induced IL-6 production; assay: IL-6 production by THP.1 monocytes stimulated with LPS; format: cell-based; conditions: listed as CID-2858522
# Text: FIG. 1 is a flow chart of screening and counter-screenings for selective inhibitors of antigen-receptor induced NF-κB pathway. A total of 114,889 compounds were screened. From a screen of 53,280 commercially available compounds (left column), 519 hits were obtained, of which 248 reconfirmed using the same primary screening assay. […] From these 11 active compounds, one hit, CID-2858522, inhibited PMA/Ionomycin-induced production of cytokine IL-8 by the HEK293 cell line. CID-2858522 was then characterized (right column). PDB was substituted for PMA to confirm suppression of an alternative PKC activator. Pathway selectivity was assessed using panels of cell lines, starting with HEK293 cells in which each of the remaining NF-κB activation pathways was stimulated, showing inhibition only of PMA/Ionomycin-induced NF-κB reporter gene activity (panel 1). […]
# [2] = system: PMA/Ionomycin-stimulated IL-8 production; assay: PMA/Ionomycin-stimulated IL-8 production by HEK293 reporter cells (ELISA); format: cell-based, human
# Procedure: (A) Structures of two hit compounds, CID-2858522 (left) and CID-2998237 (right) are shown; (B, C) 293-NF-κB-luc cells were pretreated for 2 hrs with various concentration of either CID-2858522 (B) or CID-29982387 (C) and then stimulated with TNF (10 ng/mL) or PMA/lonomycin (10 ng/mL; 5 ng/mL) for 16 h. Luciferase activity was measured and data were expressed as a percentage relative to control treatment with DMSO only (mean±SD; n=3). (D) 293-NF-κB-luc cells were pretreated for 2 h with various concentrations of CID-2858522 or CID-2998237, then stimulated with PMA/lonomycin for 16 h. IL-8 release into the medium was measured, expressing data as a percentage relative to control cultures treated with DMSO (mean±SD; n=3). (E) 293-NF-κB-luc cells were pretreated with CID-2858522 and then stimulated with PDBu for 16 h, IL-8 production and NF-κB luciferase activity were measured as above. (F) 293-NF-κB-luc cells were pretreated for 2 h with various concentrations of CID-2858522 or a PKC inhibitor (Bisindolylmaleimide I) at 1 μM followed by PMA/Ionomycin (10 ng/mL) stimulation for 2 h, then p65-DNA-binding activity was measured in nuclear extracts (10 μg protein), expressing data as fold-increase relative to unstimulated cells (mean±SD; n=3).
# Lymphokine measurements. Human IL-2 or IL-8 levels in culture medium were measured by Enzyme-Linked Immunosorbent Assays (ELISAs), using BD OptEIA ELISAs (BD Biosciences, San Diego, Calif.), according to the manufacturer's protocol, using 96-well ELISA plates (BD Biosciences) and measuring absorbance within 30 minutes of initiating reactions using a SpectraMax 190 spectrophotometer (Molecular Devices).
# [3] = system: phosphorylation of CARMA1; assay: PMA-induced CARMA1 phosphorylation in HEK293 cells (immunoblot); format: cell-based; conditions: CID-2858522 4 μM
# Procedure: (§1) FIG. 7. CID-285852 inhibits IKKβ phosphorylation induced by PKC activators. (A) HEK293 cells were cultured in 0.5% FBS medium for 24 h and then treated with CID-2858522 (4 μM) or PKC inhibitor, Bisindolylmaleimide I (1 μM) for 2 hrs followed by PMA/Ionomycin (10 ng/mL; 5 ng/mL) for 2 h. Cell lysates were subjected to immunoprecipitation using anti-CARMA1 antibody and analyzed by immunoblotting with anti-phospho-CARMA1 antibody or anti-CARMA1 antibody. (B-E) HEK293 cells were transfected with plasmids encoding myc-CARMA1 in combination with plasmids encoding various other proteins including Caspase-8 (cys287ala) (B), HA-IKK-γ (C), HA-TAK1 (D), and TRAF6 (E). After 36 h. cells were cultured in 0.5% FBS medium for 12 h and then treated with CID-2858522 (4 μM) or Bisindolylmaleimide I (1 μM) for 2 hrs, followed by PMA/Ionomycin treatment (10 ng/mL; 5 ng/mL) for 2 hrs. Cell lysates were immunoprecipated using anti-myc antibody and analyzed by immunoblotting using anti-Caspase8 (B), anti-HA (C,D), or anti-TRAF6 (E) antibodies. […] Cell lysates were normalized for protein content and analyzed by immunoblotting using anti-FLIP and anti-alpha-tubulin antibodies. […] Cell lysates were immunoprecipitated using anti-IKK-β and analyzed by immunoblotting using anti-phospho-IKK-β antibody or anti-IKK-β antibody (as loading control). […]
# IKK-β phosphorylation = assay: PMA/Ionomycin-induced IKK-β phosphorylation in HEK293 cells; format: cell-based; conditions: 4 μM
# Procedure: as §1
compound,measurement,setting,value
"Cc1cc2nc(NCCCO)n(CC(=O)c3cc(C(C)(C)C)c(O)c(C(C)(C)C)c3)c2cc1C [Compound 1, 2-(2-(3-Hydroxypropylamino)-5,6-dimethyl-1H-benzo[d]imidazol-1-yl)-1-(3,5-di-tert-butyl-4-hydroxyphenyl)ethanone]","suppression of IL-6 production, LPS-stimulated THP.1",[1],failed to inhibit; also recorded: did not suppress
same,IC50,[2]; Homo sapiens,< 100 nM
same,concentration at which maximum suppression of IL-8 production is achieved,[2]; PMA/Ionomycin,1 µM
same,effect on PMA-induced phosphorylation of CARMA1,[3],no effect
same,inhibition of PMA/Ionomycin-induced IKK-β phosphorylation,IKK-β phosphorylation,significantly inhibited

# Source: patent US20090247520A1, “INHIBITORS OF ANTIGEN RECEPTOR-INDUCED NF-kappa B ACTIVATION” (The Burnham Institute for Medical Research, priority 2008, published 2009)
